Source: US8486943B2, “Tetrahydrocyclopenta[b]indole androgen receptor modulators” (Eli Lilly and Company, priority 2008, dated 2013)
Where two headings read alike, the source gives them in different places.

Legend:
[1] = biological target: T1, human androgen receptor (AR) (Homo sapiens, UniProt P10275); assay: C2C12 AR/ARE reporter assay; type: cell-based
T1 construct: expressed in transfected cells; host or cells: mouse myoblast C2C12 cells, transient co-transfection with Fugene
T1 sequence (P10275 1-920): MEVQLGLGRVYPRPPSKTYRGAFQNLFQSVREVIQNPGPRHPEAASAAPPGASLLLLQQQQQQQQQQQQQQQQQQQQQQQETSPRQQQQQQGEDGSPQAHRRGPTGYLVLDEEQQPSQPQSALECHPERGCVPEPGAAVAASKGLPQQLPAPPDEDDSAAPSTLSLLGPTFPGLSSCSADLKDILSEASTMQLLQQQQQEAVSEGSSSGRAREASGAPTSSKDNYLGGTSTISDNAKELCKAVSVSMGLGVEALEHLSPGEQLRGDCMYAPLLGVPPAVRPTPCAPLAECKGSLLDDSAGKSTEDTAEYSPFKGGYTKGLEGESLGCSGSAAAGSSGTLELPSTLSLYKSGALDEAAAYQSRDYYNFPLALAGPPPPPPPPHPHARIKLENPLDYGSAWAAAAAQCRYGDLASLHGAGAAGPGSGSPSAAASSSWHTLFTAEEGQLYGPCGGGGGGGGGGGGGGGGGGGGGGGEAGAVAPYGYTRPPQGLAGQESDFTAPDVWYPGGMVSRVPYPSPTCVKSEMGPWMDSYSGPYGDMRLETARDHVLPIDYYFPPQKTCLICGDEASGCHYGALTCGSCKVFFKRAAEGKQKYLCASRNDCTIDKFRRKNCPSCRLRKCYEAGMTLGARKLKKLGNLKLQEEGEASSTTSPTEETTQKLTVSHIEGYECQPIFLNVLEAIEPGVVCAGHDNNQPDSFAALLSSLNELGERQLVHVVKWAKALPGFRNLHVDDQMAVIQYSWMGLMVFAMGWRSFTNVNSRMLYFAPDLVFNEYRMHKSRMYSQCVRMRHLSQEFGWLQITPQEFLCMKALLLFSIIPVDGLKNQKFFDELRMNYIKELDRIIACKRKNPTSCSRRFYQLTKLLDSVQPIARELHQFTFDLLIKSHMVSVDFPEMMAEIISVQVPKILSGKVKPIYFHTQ
Protocol: As an indicator of agonist activity in muscle tissue, the C2C12 AR/ARE reporter assay is performed. Briefly, mouse myoblast C2C12 cells are co-transfected using Fugene™ reagent. A reporter plasmid containing a GRE/ARE (glucocorticoid response element/androgen response element) and TK promoter upstream of the luciferase reporter cDNA, is transfected with a plasmid constitutively expressing human androgen receptor (AR) using viral CMV promoter. Cells are transfected in T150 cm^2 flasks in DMEM media with 4% charcoal stripped Fetal Bovine Serum (FBS). After a 5 hour incubation, transfected cells are trypsinized, plated in 96 well dishes in DMEM media containing 4% charcoal-stripped FBS, incubated for 2 h and then exposed to various concentrations of test compounds ranging from about 0.01 nM to 10 μM. After 48 h of incubations with compounds, cells are lysed and luciferase activity is determined by standard techniques. Data is fit to a 4 parameter-fit logistics to determine EC50 values. The % efficacy is determined versus maximum stimulation obtained with 10 nM methyltrienolone.

[2] = biological target: T2, human AR (androgen receptor) (Homo sapiens, UniProt P10275); assay: Steroid hormone nuclear receptor binding assay (AR binding)
T2 construct: expressed in transfected cells; host or cells: HEK293 cells (lysate, '293-AR lysate')
T2 sequence (P10275 1-920): T1 sequence (P10275 1-920)
Protocol: Cell lysates from human embryonic kidney HEK293 cells overexpressing human MR (mineralocorticoid receptor), GR (glucocorticoid receptor), AR (androgen receptor), or PR (progesterone receptor) are used for receptor-ligand competition binding assays to determine Ki values. Typical procedures are provided below
Briefly, steroid receptor competition binding assays are run in a buffer containing 20 mM HEPES buffer (pH=7.6), 0.2 mM EDTA, 75 mM NaCl, 1.5 mM MgCl2, 20% glycerol, 20 mM sodium molybdate, 0.2 mM DTT (dithiothreitol), 20 μg/mL aprotinin and 20 μg/mL leupeptin (assay buffer). […] Assays are typically run in 96-well format. Competing test compounds are added at various concentrations ranging from about 0.01 nM to 10 μM. Non-specific binding is determined in the presence of 500 nM aldosterone for MR binding, 500 nM dexamethasone for GR binding, or 500 nM methyltrienolone for AR and PR binding. […] Plates are mixed for 8 minutes on an orbital shaker at 4° C. The plates are then centrifuged at 3,000 rpm at 4° C. for 10 minutes. An aliquot of 120 μL of the binding reaction mixture is then transferred to another 96-well plate and 175 μL of Wallac Optiphase Hisafe 3™ scintillation fluid is added to each well. Plates are sealed and shaken vigorously on an orbital shaker. After an incubation of 2 hours, plates are read in a Wallac Microbeta counter.
The Kd for [^3H]-aldosterone for MR binding, [^3H]-dexamethasone for GR binding, [^3H]-methyltrienolone for AR binding, or [^3H]-methyltrienolone for PR binding, is determined by saturation binding. The IC50 values for compounds are converted to Ki using the Cheng-Prusoff equation.

[3] = test system: penile nitric oxide synthase (pnNOS) mRNA; assay: pnNOS mRNA by real-time quantitative PCR in bulbocavernosum tissue of treated castrated rats; type: in vivo, rat; settings: eight weeks
Protocol: (§1) RNA is isolated from frozen bulbous and corpus cavernosum tissues that are obtained at necropsy from castrated Sprague Dawley rats that are prepared and dosed essentially as described above for the Model of Efficacy and Selectivity. cDNA is synthesized from 2 μg of RNA using a high capacity cDNA kit according to the manufacturer's instructions.
(§2) Real-time quantitative PCR is then performed according to the fluorescent TaqMan® methodology (Applied Biosystems). Assays-on-Demand™ (Applied Biosystems) probes are used for the rat […] nitric oxide synthase transcript (eNOS) while probes are designed for the rat penile specific isoform of neuronal nitric oxide synthase (pnNOS) using probe designer software (Applied Biosystems). The probes are designed to span a 102 bp region of the rat neuronal nitric oxide synthase gene (pnNOS) that is specific to pnNOS (positions 2865-2967). MGB™ Primer sequences are 5′CCGGAACCCTTGCGTTT 3′ (SEQ ID NO:1) (forward) and 5′[…] 3′ (SEQ ID NO:2) (reverse) and the probe sequence is 5′CCCGTAAAGGGCCT 3′ (SEQ ID NO:3) (FAM NFQ). Assays-on-Demand™ probe sets for the PPIB transcript are used as an internal control. PCR is performed on an ABI Prism 7700 Sequence Detection System at the following thermocycler conditions: 2 min. at 50° C., 10 min. at 95° C., and 40 cycles at 95° C. for 30 s, and 60° C. for 1 min. All reactions are carried out in triplicate.

[4] = test system: castrated (GDX) male Sprague Dawley rats; assay: Model of Efficacy and Selectivity (castrated rats, tissue wet weights); type: in vivo, rat; settings: eight week treatment; for mean LA wet weight / mean bulbocavernous wet weight / mean prostate wet weight: oral daily
Protocol: Male Sprague Dawley rats (24 weeks old) are castrated (gonadectomized or “GDX”) according to approved procedures and allowed to waste for eight weeks. Age-matched sham-operated […] are also prepared Animals are housed in a temperature-controlled room (24° C.) with a reversed 12 hour light/dark cycle and water and food are available ad libitum.
Animals are randomized based on body weight prior to ascribing a test slot. Compounds of the present invention are administered daily by oral gavage to the castrated thirty two week old rats (body weight about 450-500 g) using a conventional vehicle such as 1% sodium carboxymethylcellulose (CMC)+0.25% Tween 80+0.05% AntiFoam® in sterile H2O. Sham operated rats treated with vehicle alone are used as a treatment positive controls whereas castrated rats treated only with vehicle are used as treatment negative control.
Test animals are dosed daily over a two or eight week timeframe with, for example, 0.3, 1, 2, 3, or 6 mg/kg/day of a compound of the present invention. After the treatment period, animals are sacrificed and the wet weight of the Levator Ani (LA) muscle and the bulbocavernous muscle in each test group may determined and compared to the wet weight of the Levator Ani and the bulbocavernous muscle from the castrated, vehicle-only control group (after weighing, the bulbocavernous muscle may be flash frozen in liquid nitrogen for later use in measuring nitric oxide synthase mRNA, as described below) As an indicator of tissue selective activity, the wet weight of the prostate from test animals may be similarly compared to the wet weight of the prostate from the castrated, vehicle-only group.

[5] = test system: epithelial nitric oxide synthase (eNOS) mRNA; assay: eNOS mRNA by real-time quantitative PCR in corpus cavernosum tissue of treated castrated rats; type: in vivo, rat; settings: 2 mg/kg/day, two weeks
Protocol: as §1, §2

Structure (SMILES): CC(C)OC(=O)N[C@H]1Cc2c(n(C[C@H]3NCC[C@@H]3O)c3ccc(C#N)cc23)C1 [Example 1, [(S)-7-Cyano-4-((2R,3S)-3-hydroxy-pyrrolidin-2-ylmethyl)-1,2,3,4-tetrahydrocyclopenta[b]indol-2-yl]-carbamic acid isopropyl ester]
- EC50 [1]: ~20 nM
- Ki [2]: ~51 nM

Structure (SMILES): CC(C)OC(=O)N[C@H]1Cc2c(n(C[C@@H]3[C@@H](O)CCN3C)c3ccc(C#N)cc23)C1 [Example 2, [(S)-7-Cyano-4-((2R,3S)-3-hydroxy-1-methyl-pyrrolidin-2-ylmethyl)-1,2,3,4-tetrahydrocyclopenta[b]indol-2-yl]-carbamic acid isopropyl ester]
- EC50 [1]: ~1 nM
- pnNOS expression ([3]; 0.3 mg/kg): about 97 % of control
- pnNOS expression ([3]; 1.0 mg/kg): about 93 % of control
- pnNOS expression ([3]; 3.0 mg/kg): about 153 % of control
- pnNOS expression ([3]; 6.0 mg/kg): about 248 % of control
- penile nitric oxide synthase (pnNOS) mRNA ([3]; 0.3-6.0 mg/kg): dose dependent increase
- mean LA wet weight ([4]; 0.3 mg/kg): about 0.137 g
- mean bulbocavernous wet weight ([4]; 0.3 mg/kg): about 0.476 g
- mean prostate wet weight ([4]; 0.3 mg/kg): about 72.4 mg
- mean LA wet weight ([4]; 1.0 mg/kg): about 0.182 g
- mean bulbocavernous wet weight ([4]; 1.0 mg/kg): about 0.582 g
- mean prostate wet weight ([4]; 1.0 mg/kg): about 102.8 mg
- mean LA wet weight ([4]; 3.0 mg/kg): about 0.205 g
- mean bulbocavernous wet weight ([4]; 3.0 mg/kg): about 0.698 g
- mean prostate wet weight ([4]; 3.0 mg/kg): about 147.4 mg
- mean LA wet weight ([4]; 6.0 mg/kg): about 0.264 g
- mean bulbocavernous wet weight ([4]; 6.0 mg/kg): about 0.955 g
- mean prostate wet weight ([4]; 6.0 mg/kg): about 271.8 mg
- Levator ani weight in comparison to the castrated control group ([4]; 0.3-6.0 mg/kg): dose dependent increase
- bulbocavernous weight in comparison to the castrated control group ([4]; 0.3-6.0 mg/kg): dose dependent increase
- eNOS expression [5]: about 159 % of control
- Ki [2]: ~11 nM

Structure (SMILES): CC(C)OC(=O)N[C@H]1Cc2c(n(Cc3ccccc3O)c3ccc(C#N)cc23)C1 [Example 9, [(S)-7-Cyano-4-(2-hydroxy-benzyl)-1,2,3,4-tetrahydro-cyclopenta[b]indol-2-yl]-carbamic acid isopropyl ester]
- EC50 [1]: ~0.3 nM
- Ki [2]: ~0.8 nM

Structure (SMILES): CC(C)OC(=O)N[C@H]1Cc2c(n(C[C@@H]3N(C)CC[C@@]3(C)O)c3ccc(C#N)cc23)C1 (relative stereo) [Example 6, [(S)-7-Cyano-4-(trans-3-hydroxy-1-methyl-3-methyl-pyrrolidin-2-ylmethyl)-1,2,3,4-tetrahydro-cyclopenta[b]indol-2-yl]-carbamic acid isopropyl ester]
- EC50 ([1]; mouse myoblast C2C12 cells transfected with human AR, no unit printed for these values, read-out: EC50 in the C2C12 AR/ARE reporter assay): ~0.3 nM
